Data from patent US6884907B2, “Hydroxamic acids and acyl hydroxamines as naaladase inhibitors” (Guilford Pharmaceuticals Inc., priority 2001, dated 2005).

Key:
[1] = system: rats with transected optic nerve; experiment: Optic nerve transection (optic nerve fiber counting); assay type: in vivo, Brown Norway rats (Rattus norvegicus); conditions: 2 weeks after transection
Method: All experiments complied with the Association for Research in Vision and Ophthalmology Statement for the Use of Animals in Ophthalmic and Vision Research. 82 male Brown Norway rats (Rattus norvegicus), each weighing approximately 250 gm, were treated using procedures approved by the Animal Care Committee of the Johns Hopkins University School of Medicine. The rats were housed with a 12 hour light/12 hour dark cycle and fed ad libitum.
OPTIC NERVE TRANSECTION: The optic nerve was transected unilaterally in 26 rats under intraperitoneal pentobarbital anesthesia. The conjunctiva was opened with scissors and the optic nerve exposed by traction on extraocular muscles. […]
The area of the optic nerve cross-section was measured by outlining its outer border at 10× magnification on an image analysis system (Universal Imaging Corp., Westchester, Pa.) with Synsys digital camera and Metamorph software. Three area measurements were taken and the mean value was determined. […] These were edited to eliminate non-neural objects and the size of each axon internal to the myelin sheath (its minimum diameter) and the density of axons/square mm were calculated for each image and nerve. […] The number of axons counted among the 10 images was an approximately 20% sample of the 80-90,000 axons in normal rat nerves. […]

STZ-diabetic animals = experiment: Diabetic neuropathy in STZ model (nerve conduction velocity); assay type: in vivo, rats; conditions: 10 mg/kg daily
Method: Motor and sensory nerve conduction velocity was also measured in STZ-diabetic animals after 4, 8 and 12 weeks of treatment (see De Koning et al., supra, for a description of the experimental method). Briefly, stimulating needle electrodes were inserted close to the sciatic and tibial nerves with recording electrodes being placed subcutaneously over the distal foot muscles, in anesthetized rats.

transgenic G1H mice = experiment: Onset of ALS in SOD transgenic mice model of FALS; assay type: in vivo
Method: The effect of NAALADase inhibitors on the onset of ALS was tested using the superoxide dismutase (“SOD”) transgenic mice model of familial Amyotrophic Lateral Sclerosis (“FALS”), which is detailed in Gurney, M., Annals of Neurology (1996) 39:147-157, and otherwise well known in the art. One month old transgenic G1H mice were treated with daily intraperitoneal injections of a vehicle (50 mM HEPES-buffered saline) or a NAALADase inhibitor (50 mg/kg of Compound A). Clinical symptoms of the mice were monitored daily. The onset of clinical disease was scored by examining each mouse for its shaking of limbs when suspended in the air by its tail, cross spread of spinal reflexes, hindlimb paralysis, body weight and wheel running activity.

[2] = system: STZ-induced diabetic rats; experiment: Neuropathic pain in STZ model (thermal nociception, Hargreaves apparatus); assay type: in vivo, Male Sprague-Dawley rats; conditions: 10 mg/kg i.p. daily, treatment started 45 days post-STZ, FIGS. 7A and 7B
Method: Male Sprague-Dawley rats (200-225 g) were rendered diabetic by intravenous administration of streptozotocin (“STZ”, 70 mg/kg in phosphate buffered saline). Diabetic animals were divided into five groups: one group receiving Compound A (10 mg/kg or 1 mg/kg), Compound D (10 mg/kg or 1 mg/kg) or vehicle. Another group of animals (non-STZ treated) served as non-diabetic controls. Drug/vehicle treatment was started in diabetic animals 45 days post-STZ administration. STZ-induced diabetic rats were tested for sensitivity to a heat source as soon as blood glucose levels rose to 320 mg/dl or above (30 days post STZ). The rats were then acclimated to a Hargreaves apparatus and thermal nociception was monitored using an infrared heat source directed into the dorsal surface of the hindpaw, and the time taken for the animal to remove its paw noted to the nearest 0.1 seconds (see Hargreaves et al., supra, for detailed experimental method). The intensity of the beam source was adjusted such that the mean latency for control animals (non-STZ treated) was approximately 10 seconds. Each animal was tested 8 times and the mean difference score (between mean non-diabetic control latency and mean diabetic latency) are graphically presented in FIGS. 7A and 7B.

BB/W diabetic rats = experiment: Progression of neuropathic pain and nerve conduction deficits in BB/W model; assay type: in vivo, Male BB/W rats
Source text: Male BB/W rats (BRI, Mass) spontaneously develop a cell mediated autoimmune destruction of pancreatic B cells, resulting in onset of insulin-dependent (Type I) diabetes (Guberski 1994). […] This renders them valuable for experimental trials of new compounds for future treatments of this major disorder. In the present study, Compound D and Compound A were examined for their ability to alter the progression of diabetic neuropathy. The rats received daily injection of Compound D or Compound A (10 mg/kg i.p.) or vehicle, starting at the onset of diabetes (hyperglycemia) and up to 6 months thereafter. Another group of non-diabetic rats also receiving vehicle were tested. All animals were continuously monitored for body weight, urine volume, blood sugar and glycated haemoglobin. In the first month of the study, all animals were tested for thermal nociception in a Hargreaves apparatus, weekly. After the first month this was done biweekly and then monthly. The testing consists of directing an infrared heat source onto the dorsal surface of the rat hindpaw and noting the time taken for the animal to remove its paw (see Hargreaves et al., supra, for a description of the experimental method). Each animal was tested 8 times and the mean withdrawal latency noted.
Nerve conduction velocity was also measured every two weeks through the first eight weeks of treatment and every month thereafter through to the six months of treatment (see De Koning et al., Peptides, Vol. 8, No. 3, pp. 415-22 (1987) for a description of the experimental method). […] This was apparent starting at 8 weeks of treatment and persisted to a similar degree through to the six month termination point of the study.

[3] = system: transgenic HD mice (N171-82Q); experiment: Transgenic mouse model of Huntington's disease: survival; assay type: in vivo
Method: The effects of Compound B and vehicle on the survival of transgenic HD mice (N171-82Q) were evaluated. Thirteen mice (six male and seven female) were assigned to the Compound B treatment group, and fourteen mice (six male and eight female) were assigned to the vehicle treatment group. Treatment was continued until all the mice died.

[4] = system: Transgenic HD mice of the N171-82Q strain; experiment: Transgenic mouse model of Huntington's disease: behavioral testing (rotarod, locomotion); assay type: in vivo
Method: Transgenic HD mice of the […]-[…] strain and non-transgenic littermates were treated with NAALADase inhibitor Compound B (30 mg/kg) or a vehicle from 10 weeks of age. The mice were placed on a rotating rod (“rotarod”). The length of time at which the mouse fell off the rotarod was recorded as a measure of motor coordination. […] The treatment with Compound B had no effect on the rotarod performance of normal non-HD mice. The total distance traveled by the mice was also recorded as a measure of overall locomotion.

[5] = system: rats with sciatic nerve ligation; experiment: Neuropathic pain in chronic constriction injury (CCI) model; assay type: in vivo; conditions: 50 mg/kg i.p. daily starting 10 days post surgery, versus vehicle, FIG. 8
Method: Sciatic nerve ligation, consisting of 4 ligatures tied loosely around the sciatic nerve at 1 mm intervals proximal to the nerve trifurcation, was performed on rats. […] The rats were habituated to a Hargreaves apparatus. An infrared heat source was directed onto the […] surface of each rat's hindpaws and the time taken for the rat to withdraw its paws was noted. The difference in scores between the latency of the response for the paw on the operated side versus the paw on the unoperated control side was determined. The rats received either Compound C (50 mg/kg i.p. daily) or a vehicle starting 10 days post surgery. […] Normal (unoperated) rats had approximately equal latencies for both paws. This effect was significant starting at 11 days of drug treatment and persisted through to the end of the study (for 21 days of daily dosing).

TGF-β [6] = experiment: Effect of NAALADase inhibition on TGF-β in in vivo ischemia model (MCAO); conditions: MCAO rats
Source text: The effect of TGF-β neutralizing antibodies on the neuroprotective effect of Compound C was also studied in rats following MCAO.

TGF-β [7] = experiment: Effect of NAALADase inhibition on TGF-β in in vitro ischemia model; assay type: cell-based; conditions: ischemic cell cultures
Method: A NAALADase inhibitor, Compound C, was added to ischemia cell cultures to determine its effect on TGF-β levels during stroke.
TGF-β neutralizing antibodies were then added to the ischemic cell cultures.

**Q.** Which “remaining axons relative to saline-treated rats” value [1] does the source give for `O=C(O)CCC(CP(=O)(O)Cc1c(F)c(F)c(F)c(F)c1F)C(=O)O` (stereo not shown) [Compound A, 2-[[(2,3,4,5,6-pentafluorobenzyl)hydroxyphosphinyl]methyl]pentanedioic acid] here?
**A.** Its value is 3 times.

**Q.** And the “sensory nerve conduction velocity” value (STZ-diabetic animals; after 8 weeks, FIG. 9B)?
**A.** Its value is “significant improvement”.

**Q.** What about the “motor nerve conduction velocity” value (STZ-diabetic animals; after 12 weeks, FIG. 9A) of the same molecule?
**A.** Its value is “significant improvement”.

**Q.** And the “Difference in disease onset (treated versus vehicle)” value (transgenic G1H mice; Study 1, 50 mg/kg daily i.p.)?
**A.** The value was 32.

**Q.** What about the “Disease Onset For Compound A Treated Mice” value (transgenic G1H mice; Study 1, 50 mg/kg daily i.p., vehicle 189) of the same molecule?
**A.** The value was 221 days.

**Q.** And the “Difference in disease onset (treated versus vehicle)” value (transgenic G1H mice; Study 2, 50 mg/kg daily i.p.)?
**A.** Its value is 25.

**Q.** And the “Disease Onset For Compound A Treated Mice” value (transgenic G1H mice; Study 2, 50 mg/kg daily i.p., vehicle 141)?
**A.** Its value is 166 days.

**Q.** And the “hyperalgesic response (withdrawal latency difference score)” value [2]?
**A.** The value was “completely reversed”.

**Q.** And the nerve conduction velocity (BB/W diabetic rats; 10 mg/kg daily, versus diabetic vehicle controls, from 8 weeks to six months, FIG. 12)?
**A.** Its nerve conduction velocity is “significantly less severe nerve conduction deficits”.

**Q.** And the withdrawal latency (BB/W diabetic rats; 10 mg/kg i.p. daily, versus diabetic vehicle-treated rats, from 4 weeks through six months of treatment, FIG. 11)?
**A.** The withdrawal latency was “longer withdrawal latencies”.

**Q.** Which “remaining axons relative to saline-treated rats” value [1] does the source give for `O=C(O)CCC(CCCS)C(=O)O` (stereo not shown) [Compound B, 2-(3-sulfanylpropyl)pentanedioic acid] here?
**A.** The value was “twice”.

**Q.** And the median survival time ([3]; all treated transgenic HD mice, vehicle 158.5 days, p-value=0.07, FIG. 33)?
**A.** Its median survival time is 184 days.

**Q.** What about the survival time ([3]; female transgenic HD mice versus vehicle, p-value=0.03, FIG. 35) of the same molecule?
**A.** The survival time was “significantly prolonged survival time”.

**Q.** And the rotarod performance ([4]; normal non-HD mice, 30 mg/kg)?
**A.** The rotarod performance was “no effect”.

**Q.** What about the “rotarod performance (time on rotarod)” value ([4]; transgenic HD mice, 30 mg/kg from 10 weeks of age, versus vehicle, FIG. 31) of the same molecule?
**A.** Its value is “stayed longer on the rotarod”.

**Q.** With `O=C(O)CCC(CP(=O)(O)O)C(=O)O` (stereo not shown) [Compound C, 2-(phosphonomethyl)pentanedioic acid] as the molecule, how does the “difference scores between the two paws (withdrawal latency)” value [5] read?
**A.** The value was “dramatically normalized”.

**Q.** What about the “neuroprotective effect in presence of TGF-β neutralizing antibodies” value (TGF-β [6]; FIG. 5) of the same molecule?
**A.** The value was “significantly attenuated the neuroprotective effect”.

**Q.** What about the TGF-β1 levels (TGF-β [6]; during occlusion and reperfusion, microdialysis, FIG. 6) of the same molecule?
**A.** Its TGF-β1 levels is “significant rise”.

**Q.** And the TGF-β1 concentration (TGF-β [7]; FIG. 1)?
**A.** Its TGF-β1 concentration is “increased concentrations”.

**Q.** What about the TGF-β2 concentration (TGF-β [7]; FIG. 2) of the same molecule?
**A.** Its TGF-β2 concentration is “increased concentrations”.

**Q.** And the “neuroprotective effect in presence of TGF-β neutralizing antibodies” value (TGF-β [7]; FIG. 3)?
**A.** The value was “blocked the neuroprotective effect”.

**Q.** And the “neuroprotective effect in presence of FGF antibody” value (TGF-β [7]; FIG. 4)?
**A.** Its value is “did not block the neuroprotective effect”.
